Data taken from patent US8461150B2, “Chalcone linked pyrrolo[2,1-c][1, 4]benzodiazepine hybrids as potential anticancer agents and process for the preparation thereof” (Council of Scientific & Industrial Research, priority 2008, dated 2013).

Key:
Assay in all cases: Cytotoxicity in selected cancer cell lines (SRB, 48 h)
Format in all cases: cell-based, human
786-0 (Renal) = system: 786-0 (Renal)
Description: (§1) Biological Activity: The in vitro cell line studies were carried out at the National Cancer Institute, Maryland, USA.
(§2) 6b, 6c, 6g, 10a and 10b were evaluated for in vitro anticancer activity against sixty human tumour cells derived from nine cancer types (leukemia, non-small-cell lung, colon, CNS, melanoma, ovarian, prostate, renal and breast cancer) as shown in (Table 1 and 2). For the compound, dose response curves for each cell line were measured at a minimum of five concentrations at 10 fold dilutions. A protocol of 48 h continuous drug exposure was used and a sulforhodamine B (SRB) protein assay was used to estimate cell viability or growth. The concentration causing 50% cell growth inhibition (GI50), total cell growth inhibition (TGI 0% growth) and 50% cell death (LC50, −50% growth) compared with the control was calculated.
(§3) Each cancer type represents the average of six to nine different cancer cell lines. In vitro evaluation of cytotoxic activity. The compound 6b, 6c, 6g 10a and 10b were evaluated for in vitro anticancer activity against nine human tumour cells derived from six cancer types (leukemia, colon, prostate, melanoma, ovarian, lung, cervix and breast cancer) as shown in Table 3. […] Compounds 6b, 6c, 6g, 10a and 10b have been evaluated for their in vitro cytotoxicity in selected human cancer cell lines of colon (Colo205), lung (NCI-H522, NCI-H226), colon (colo-205), prostate (DU145, PC3), ovarian (IGROV1, HT1080), and breast (MDA-MB-435, Zr-75-1), melanoma (LOXMIVI, VACC-62, SK-MEL-5) origin. A protocol of 48 h continuous drug exposure has been used and an […] has been used to estimate cell viability or growth. The results are expressed as percent of cell growth determined relative to that of untreated control cells

A498 (Renal) = system: A498 (Renal)
Description: as §1, §2, §3

ACHN (Renal) = system: ACHN (Renal)
Description: as §1, §2, §3

HCT-116 (Colon) = system: HCT-116 (Colon)
Description: as §1, §2, §3

HCT-15 (Colon) = system: HCT-15 (Colon)
Description: as §1, §2, §3

HL-60(TB) (Leukemia) = system: HL-60(TB) (Leukemia)
Description: as §1, §2, §3

LOX IMVI (Melanoma) = system: LOX IMVI (Melanoma)
Description: as §1, §2, §3

MALME-3M (Melanoma) = system: MALME-3M (Melanoma)
Description: as §1, §2, §3

MDA-MB-231/ATCC (Breast) = system: MDA-MB-231/ATCC (Breast)
Description: as §1, §2, §3

[1] = system: NCI-H226 (Non-small cell lung)
Description: as §1, §2, §3

RPMI-8226 (Leukemia) = system: RPMI-8226 (Leukemia)
Description: as §1, §2, §3

SF-539 (CNS) = system: SF-539 (CNS)
Description: as §1, §2, §3

SW-620 (Colon) = system: SW-620 (Colon)
Description: as §1, §2, §3

TK-10 (Renal) = system: TK-10 (Renal)
Description: as §1, §2, §3

U251 (CNS) = system: U251 (CNS)
Description: as §1, §2, §3

UACC-257 (Melanoma) = system: UACC-257 (Melanoma)
Description: as §1, §2, §3

UACC-62 (Melanoma) = system: UACC-62 (Melanoma)
Description: as §1, §2, §3

SMILES | GI50 (786-0 (Renal)) [µM] | GI50 (A498 (Renal)) [µM] | GI50 (ACHN (Renal)) [µM] | GI50 (HCT-116 (Colon)) [µM] | GI50 (HCT-15 (Colon)) [µM] | GI50 (HL-60(TB) (Leukemia)) [µM] | GI50 (LOX IMVI (Melanoma)) [µM] | GI50 (MALME-3M (Melanoma)) [µM] | GI50 (MDA-MB-231/ATCC (Breast)) [µM] | GI50 [1] [µM] | GI50 (RPMI-8226 (Leukemia)) [µM] | GI50 (SF-539 (CNS)) [µM] | GI50 (SW-620 (Colon)) [µM] | GI50 (TK-10 (Renal)) [µM] | GI50 (U251 (CNS)) [µM] | GI50 (UACC-257 (Melanoma)) [µM] | GI50 (UACC-62 (Melanoma)) [µM]
COc1cc(C=CC(=O)c2ccc(F)cc2)ccc1OCCCCOc1cc2c(cc1OC)C(=O)N1CCC[C@H]1C=N2 [6b, 7-Methoxy-8-{4-[1-(4-fluorophenyl)-3-(4-hydroxy-3-methoxyphenyl)-2-propen-1-one]butyl}-oxy-(11aS)-1,2,3,11a-5H-pyrrolo[2,1-c][1,4]benzodiazepin-5-one] | 19.8 | 26.1 | 43.4 | 11.2 | 28.5 | 29 | 10 | 18.2 | 11.6 | 14 | 13 | 29.6 | 13.5 | 16.6 | 14.8 | 70.9 | 10
COc1cc(C=CC(=O)c2ccc(F)cc2)ccc1OCCCCCOc1cc2c(cc1OC)C(=O)N1CCC[C@H]1C=N2 [6c, 7-Methoxy-8-{5-[1-(4-fluorophenyl)-3-(4-hydroxy-3-methoxyphenyl)-2-propen-1-one]pentyl}-oxy-(11aS)-1,2,3,11a-5H-pyrrolo[2,1-c][1,4]benzodiazepin-5-one] | 18.4 | 20.1 | 42 | 21 | 29.3 | 28.2 | 18.2 | 24.2 | 19.9 | 16.5 | 16.4 | 30.3 | 18.8 | 38.2 | 15.2 | 22.9 | 15.1
COc1cc(C=CC(=O)c2c(C)nc3ccccc3c2C)ccc1OCCCOc1cc2c(cc1OC)C(=O)N1CCC[C@H]1C=N2 [10a, 7-Methoxy-8-{3-[3-(4-hydroxy-3-methoxyphenyl)-1-(2,4-dimethyl-3-quinolyl)-2-propen-1-one]propyl}-oxy-(11aS)-1,2,3,11a-5H-pyrrolo[2,1-c][1,4]benzodiazepin-5-one] | 17.3 | 20.1 | 32 | 21 | 29.7 | 25.2 | 18.2 | 24.2 | 19.9 | 10.8 | 15 | 30.3 | 26.6 | 33.2 | 19.8 | 22.9 | 15.1
COc1cc(C=CC(=O)c2c(C)nc3ccccc3c2C)ccc1OCCCCOc1cc2c(cc1OC)C(=O)N1CCC[C@H]1C=N2 [10b, 7-Methoxy-8-{4-[3-(4-hydroxy-3-methoxyphenyl)-1-(2,4-dimethyl-3-quinolyl)-2-propen-1-one]butyl}-oxy-(11aS)-1,2,3,11a-5H-pyrrolo[2,1-c][1,4]benzodiazepin-5-one] | 14.9 | 19.5 | 36.1 | 14.6 | 18.4 | 24.5 | 15 | 36.2 | 14.2 | 10.1 | 13.8 | 33.7 | 25.9 | 31.4 | 15.7 | 15.9 | 22.5
